What follows are compounds tested against GIRK1/4 (Homo sapiens (Human), UniProt P48544+P48549) (assay: GIRK1/4 inhibition, Quattro (IonWorks) population patch clamp, inward potassium current in GIRK 1/4 HEK293 stable cells (test assay No. 1)). Settings: percentage of current inhibition normalized to DMSO-only control.
Assay type: cell-based
Method: The activity of a compound according to the present invention can be assessed by the following in vitro method. • 1. Buffers: • a. External buffer: 10 mM NaCl, 50 mM Na Gluconate, 80 mM K Gluconate, 1.8 mM CaCl2, 1 mM MgCl2, 10 mM HEPES, 10 mM Glucose, pH 7.4; osmolality […]. • b. Internal buffer: 30 mM KCl, 100 mM K Gluconate, 1 mM MgCl2, 10 mM HEPES, 1 mM EGTA, 10 mM NaCl, pH 7.2; osmolality […]. • 2. Compounds: • a. Prepare seven-fold compound dilution series (10 mM to 20 uM) in 100% DMSO, in 384-well polypropylene plates. • b. Propafenone (Sigma Aldrich, catalog number P4670) is used as a positive control and DMSO for neutral control • c. Resuspend 1 ul of compounds in DMSO into 65.7 ul external buffer in 384-well polypropylene plate and load into Plate 1 section of Molecular Devices Quattro • 3. Quattro setup: • a. Load 384-well Population Patch Plate (Molecular Devices #9000-0902) into Quattro • b. Fill Quattro F-soak trough with 20% DMSO and 50% EtOH • c. Fill Quattro buffer trough with external buffer • d. Attach internal buffer flask to Quattro internal buffer tubing • e. Attach PBS (Phosphate Buffered Saline, minus Ca^++ and Mg^++, pH7.4) bottle to F-head & E-head wash on Quattro • 4. Antibiotic: • a. Resuspend 5.6 mg amphotericin B (Sigma Aldrich, catalog number A2411) in 175 ul DMSO • b. Add the resulting solution to 50 ml internal buffer, mix and attach to antibiotic tubing port on Quattro • 5. Cells: • a. Use GIRK 1/4 HEK293 stable cells (obtained from ChanTest, 14656 Neo Parkway, Cleveland, Ohio 44128) grown to […] confluency in the following cell culture medium: DMEM containing 10% (v/v) Fetal Bovine Serum, Penicillin/Streptomycin (at “1×” concentration from a 100× stock), 0.5 mg/ml G418 and 0.1 mg/ml Zeocin. • b. Wash cells with PBS (minus Ca^++ and Mg^++), Detach cells using Detachin (Genlantis, 11011 Torreyana, San Diego, Calif. 92121), and resuspend in external buffer (5 ml final volume at 2.0-2.1×10^6 cells/ml) • c. Load into cell trough of Quattro • 6. Assay Protocol: • Quattro is controlled using IonWorks v2 software to perform the following steps: • a. Add 3.5 ul cells plus 3.5 ul external buffer to wells of Quattro Patch Plate • b. Circulate amphotericin B and internal buffer onto cells • c. Apply the following voltage protocol: Pulse 1: 15 mV for 300 milliseconds (ms), followed by Pulse 2: −120 mV for 400 ms, then Pulse 3: −15 mV for 400 ms, and finally Pulse 4: −120 mV to 40 mV over 500 ms (this is a voltage ramp). • d. Measure magnitude of inward potassium current at time point between 1200-1220 ms from start of Pulse 1 (i.e. during the voltage ramp phase). • e. Add 3.5 ul of diluted compounds (or DMSO) to wells and repeat steps c-d (final compound concentrations are 50 uM to 0.1 uM, for potent compounds 0.5 uM to 0.01 uM and each concentration is tested in quadruplicate—i.e. in 4 separate wells). • f. The difference between current magnitude pre vs. post-compound gives a measure of GIRK1/4 inhibition. • 7. Data analysis:
IC50 values are calculated by plotting the percentage of current inhibition (normalized to the DMSO-only control) as a function of compound concentration using standard data analysis software.

GIRK1/4, sequence (P48549 whole entry): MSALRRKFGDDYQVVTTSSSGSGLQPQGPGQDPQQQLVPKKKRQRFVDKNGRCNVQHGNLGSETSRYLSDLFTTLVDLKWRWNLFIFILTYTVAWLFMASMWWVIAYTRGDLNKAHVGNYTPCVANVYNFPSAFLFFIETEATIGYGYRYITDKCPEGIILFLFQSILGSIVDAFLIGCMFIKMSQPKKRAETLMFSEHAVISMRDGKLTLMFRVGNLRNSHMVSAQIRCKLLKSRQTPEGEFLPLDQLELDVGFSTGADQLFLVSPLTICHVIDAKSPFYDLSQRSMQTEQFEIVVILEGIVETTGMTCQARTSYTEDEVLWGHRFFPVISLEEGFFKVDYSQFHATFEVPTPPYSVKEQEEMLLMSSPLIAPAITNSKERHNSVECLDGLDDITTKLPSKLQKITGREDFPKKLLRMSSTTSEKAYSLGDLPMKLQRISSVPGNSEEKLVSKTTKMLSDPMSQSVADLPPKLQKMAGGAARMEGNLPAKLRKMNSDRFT
GIRK1/4, sequence (P48544 whole entry): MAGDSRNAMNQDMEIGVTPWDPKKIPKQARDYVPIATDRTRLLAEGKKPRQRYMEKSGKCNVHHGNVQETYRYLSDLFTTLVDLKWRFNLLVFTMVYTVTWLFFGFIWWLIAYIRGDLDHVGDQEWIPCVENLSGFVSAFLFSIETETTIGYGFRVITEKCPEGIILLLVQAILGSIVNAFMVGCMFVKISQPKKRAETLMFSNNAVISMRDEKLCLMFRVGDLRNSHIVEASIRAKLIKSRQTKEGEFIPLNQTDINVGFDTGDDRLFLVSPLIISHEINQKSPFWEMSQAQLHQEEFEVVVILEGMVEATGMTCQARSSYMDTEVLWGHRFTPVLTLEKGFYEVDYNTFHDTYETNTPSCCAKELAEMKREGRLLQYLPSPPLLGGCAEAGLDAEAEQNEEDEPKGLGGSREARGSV

| IC50 [nM] | SMILES |
| --- | --- |
| 148 | Cc1cc(=O)c2c(NCCNS(C)(=O)=O)cncc2n1-c1c(Cl)cc(C#N)cc1Cl [Example 22, N-(2-((1-(2,6-dichloro-4-cyanophenyl)-2-methyl-4-oxo-1,4-dihydro-1,7-naphthyridin-5-yl)amino)ethyl)methanesulfonamide] |
| 146 | Cc1cc(=O)c2c(N3CCN(CCO)CC3)ncc(Cl)c2n1-c1c(Cl)cc(C#N)cc1Cl [Example 25, 3,5-dichloro-4-(8-chloro-5-(4-(2-hydroxyethyl)piperazin-1-yl)-2-methyl-4-oxo-1,6-naphthyridin-1(4H)-yl)benzonitrile] |
| 150 | Cc1cc(=O)c2c(NCCO)cncc2n1-c1c(Cl)cc(C#N)cc1Cl [Example 27, 3,5-dichloro-4-(5-((2-hydroxyethyl)amino)-2-methyl-4-oxo-1,7-naphthyridin-1(4H)-yl)benzonitrile] |
| 505 | Cc1cc(=O)c2c(N3CC(O)C3)cncc2n1-c1c(Cl)cc(C#N)cc1Cl [Example 29, 3,5-dichloro-4-(5-(3-hydroxyazetidin-1-yl)-2-methyl-4-oxo-1,7-naphthyridin-1(4H)-yl)benzonitrile] |
| 240 | Cc1cc(=O)c2c(OCC(O)CO)ncc(Cl)c2n1-c1c(Cl)cccc1C#N (centres unmarked) [Example 34, 3-chloro-2-(8-chloro-5-(2,3-dihydroxypropoxy)-2-methyl-4-oxo-1,6-naphthyridin-1(4H)-yl)benzonitrile] |
| 9 | Cc1cc(=O)c2c(OCCNS(C)(=O)=O)ncc(Cl)c2n1-c1c(Cl)cccc1Cl [Example 36, N-(2-((8-chloro-1-(2,6-dichlorophenyl)-2-methyl-4-oxo-1,4-dihydro-1,6-naphthyridin-5-yl)oxy)ethyl)methanesulfonamide] |
| 15 | Cc1cc(=O)c2c(NC[C@H](O)CO)ncc(Cl)c2n1-c1c(Cl)cccc1Cl [Example 39, (S)-8-chloro-1-(2,6-dichlorophenyl)-5-((2,3-dihydroxypropyl)amino)-2-methyl-1,6-naphthyridin-4(1H)-one] |
| 15 | Cc1cc(=O)c2c(OCC(C)(C)O)ncc(Cl)c2n1-c1c(Cl)cccc1Cl [Example 42, 8-chloro-1-(2,6-dichlorophenyl)-5-(2-hydroxy-2-methylpropoxy)-2-methyl-1,6-naphthyridin-4(1H)-one] |
| 26 | Cc1cc(=O)c2c(N[C@@H]3COC[C@H]3O)ncc(Cl)c2n1-c1c(Cl)cc(C#N)cc1Cl [Example 43, 3,5-dichloro-4-(8-chloro-5-(((3R,4S)-4-hydroxytetrahydrofuran-3-yl)amino)-2-methyl-4-oxo-1,6-naphthyridin-1(4H)-yl)benzonitrile] |
| 56 | Cc1cc(=O)c2c(NOCCO)ncc(Cl)c2n1-c1c(Cl)cc(C#N)cc1Cl [Example 44, 3,5-dichloro-4-(8-chloro-5-((2-hydroxyethoxy)amino)-2-methyl-4-oxo-1,6-naphthyridin-1(4H)-yl)benzonitrile] |

Continued, compound first:

| SMILES | IC50 [nM] |
| --- | --- |
| Cc1cc(=O)c2c(OCCOCCOCCOCCOCCOCCO)ncc(Cl)c2n1-c1c(Cl)cccc1Cl [Example 19, 8-chloro-1-(2,6-dichlorophenyl)-5-((17-hydroxy-3,6,9,12,15-pentaoxaheptadecyl)oxy)-2-methyl-1,6-naphthyridin-4(1H)-one] | 98 |
| Cc1cc(=O)c2c(OCC(O)COCC(O)CO)ncc(Cl)c2n1-c1c(Cl)cccc1Cl (centres unmarked) [Example 20, 8-chloro-1-(2,6-dichlorophenyl)-5-(3-(2,3-dihydroxypropoxy)-2-hydroxypropoxy)-2-methyl-1,6-naphthyridin-4(1H)-one] | 173 |
| Cc1cc(=O)c2c(OCCOCCOCCOCCO)ncc(Cl)c2n1-c1c(Cl)cccc1C#N [Example 21, 3-chloro-2-(8-chloro-5-(2-(2-(2-(2-hydroxyethoxy)ethoxy)ethoxy)ethoxy)-2-methyl-4-oxo-1,6-naphthyridin-1(4H)-yl)benzonitrile] | 154 |
| Cc1cc(=O)c2c(OCCOCCOCCOCCO)ncc(Cl)c2n1-c1c(Cl)cc(F)cc1C#N [Example 23, 3-chloro-2-(8-chloro-5-(2-(2-(2-(2-hydroxyethoxy)ethoxy)ethoxy)ethoxy)-2-methyl-4-oxo-1,6-naphthyridin-1(4H)-yl)-5-fluorobenzonitrile] | 344 |
| Cc1cc(=O)c2c(OCCOCCOCCOCCOCCOCCO)ncc(Cl)c2n1-c1c(Cl)cc(F)cc1Cl [Example 24, 8-chloro-1-(2,6-dichloro-4-fluorophenyl)-5-((17-hydroxy-3,6,9,12,15-pentaoxaheptadecyl)oxy)-2-methyl-1,6-naphthyridin-4(1H)-one] | 253 |
| Cc1cc(=O)c2c(OCC(O)C(O)CO)ncc(Cl)c2n1-c1c(Cl)cccc1Cl (centres unmarked) [Example 26, 8-chloro-1-(2,6-dichlorophenyl)-2-methyl-5-(2,3,4-trihydroxybutoxy)-1,6-naphthyridin-4(1H)-one] | 31 |
| Cc1cc(=O)c2c(OCCOCCOCCOCCO)ncc(Cl)c2n1-c1c(Cl)cccc1Cl [Example 30, 8-chloro-1-(2,6-dichlorophenyl)-5-(2-(2-(2-(2-hydroxyethoxy)ethoxy)ethoxy)ethoxy)-2-methyl-1,6-naphthyridin-4(1H)-one] | 25 |
| Cc1cc(=O)c2c(OCCOCCOCCOCCO)ncc(Cl)c2n1-c1c(Cl)cc(F)cc1Cl [Example 32, 8-chloro-1-(2,6-dichloro-4-fluorophenyl)-5-(2-(2-(2-(2-hydroxyethoxy)ethoxy)ethoxy)ethoxy)-2-methyl-1,6-naphthyridin-4(1H)-one] | 33 |
| Cc1cc(=O)c2c(N3C[C@@H](O)[C@@H](O)C3)ncc(Cl)c2n1-c1c(Cl)cccc1Cl [Example 33, 8-chloro-1-(2,6-dichlorophenyl)-5-((3R,4S)-3,4-dihydroxypyrrolidin-1-yl)-2-methyl-1,6-naphthyridin-4(1H)-one] | 100 |
| Cc1cc(=O)c2c(NCCc3c[nH]cn3)ncc(Cl)c2n1-c1c(Cl)cccc1Cl [Example 35, 5-((2-(1H-imidazol-4-yl)ethyl)amino)-8-chloro-1-(2,6-dichlorophenyl)-2-methyl-1,6-naphthyridin-4(1H)-one] | 35 |
| Cc1cc(=O)c2c(NCCOCCOCCOCCO)ncc(Cl)c2n1-c1c(Cl)cccc1Cl [Example 37, 8-chloro-1-(2,6-dichlorophenyl)-5-((2-(2-(2-(2-hydroxyethoxy)ethoxy)ethoxy)ethyl)amino)-2-methyl-1,6-naphthyridin-4(1H)-one] | 6 |
| Cc1cc(=O)c2c(OCC(O)CO)ncc(Cl)c2n1-c1c(Cl)cccc1Cl (centres unmarked) [Example 38, 8-chloro-1-(2,6-dichlorophenyl)-5-(2,3-dihydroxypropoxy)-2-methyl-1,6-naphthyridin-4(1H)-one] | 8 |
| Cc1cc(=O)c2c(OCC(O)C(C)(C)O)ncc(Cl)c2n1-c1c(Cl)cccc1Cl (centres unmarked) [Example 40, 8-chloro-1-(2,6-chlorophenyl)-5-(2,3-dihydroxy-3-methylbutoxy)-2-methyl-1,6-naphthyridin-4(1H)-one] | 13 |
| Cc1cc(=O)c2c(OCC(C)(CO)CO)ncc(Cl)c2n1-c1c(Cl)cccc1Cl [Example 41, 8-chloro-1-(2,6-dichlorophenyl)-5-(3-hydroxy-2-(hydroxymethyl)-2-methylpropoxy)-2-methyl-1,6-naphthyridin-4(1H)-one] | 28 |
| Cc1cc(=O)c2c(Nc3nnnn3C)ncc(Cl)c2n1-c1c(Cl)cccc1Cl [Example 45, 8-chloro-1-(2,6-dichlorophenyl)-2-methyl-5-((1-methyl-1H-tetrazol-5-yl)amino)-1,6-naphthyridin-4(1H)-one] | 149 |
| Cc1cc(=O)c2c(Oc3nnnn3C)ncc(Cl)c2n1-c1c(Cl)cccc1Cl [Example 46, 8-chloro-1-(2,6-dichlorophenyl)-2-methyl-5-((1-methyl-1H-tetrazol-5-yl)oxy)-1,6-naphthyridin-4(1H)-one] | 128 |
